Reference: PubChem BioAssay AID1259407 (Chemical Carcinogenesis Research Information System (CCRIS), 2018)
Activity calls are given as the source filed them. How the calls were made is not given here.

Tested on: CCRIS mutagenicity, Ames/micronucleus/aberration tests
Test: CCRIS mutagenicity studies
[1] = Test System: AMES SALMONELLA TYPHIMURIUM, Strain/Indicator: TA98, Metabolic Activation: NONE, Method: STANDARD PLATE
[2] = Test System: AMES SALMONELLA TYPHIMURIUM, Strain/Indicator: TA98, Metabolic Activation: RAT, LIVER, S-9, AROCLOR 1254, Method: STANDARD PLATE
[3] = Test System: AMES SALMONELLA TYPHIMURIUM, Strain/Indicator: TA100, Metabolic Activation: NONE, Method: STANDARD PLATE
[4] = Test System: AMES SALMONELLA TYPHIMURIUM, Strain/Indicator: TA100, Metabolic Activation: RAT, LIVER, S-9, AROCLOR 1254, Method: STANDARD PLATE
[5] = Test System: AMES SALMONELLA TYPHIMURIUM, Strain/Indicator: TA1535, Metabolic Activation: NONE, Method: STANDARD PLATE
[6] = Test System: AMES SALMONELLA TYPHIMURIUM, Strain/Indicator: TA1535, Metabolic Activation: RAT, LIVER, S-9, AROCLOR 1254, Method: STANDARD PLATE
[7] = Test System: AMES SALMONELLA TYPHIMURIUM, Strain/Indicator: TA1537, Metabolic Activation: NONE, Method: STANDARD PLATE
[8] = Test System: AMES SALMONELLA TYPHIMURIUM, Strain/Indicator: TA1537, Metabolic Activation: RAT, LIVER, S-9, AROCLOR 1254, Method: STANDARD PLATE

SMILES | mutagenic call [1] | mutagenic call [2] | mutagenic call [3] | mutagenic call [4] | mutagenic call [5] | mutagenic call [6] | mutagenic call [7] | mutagenic call [8] | further results
CCCON=O | inactive; negative | inactive; negative | inactive; negative | active; positive | active; positive | active; positive | inactive; negative | inactive; negative | mutagenic call (Test System: AMES SALMONELLA TYPHIMURIUM, Strain/Indicator: TA98, Metabolic Activation: HAMSTER, LIVER, S-9, AROCLOR 1254, Method: STANDARD PLATE): inactive; negative; mutagenic call (Test System: AMES SALMONELLA TYPHIMURIUM, Strain/Indicator: TA100, Metabolic Activation: HAMSTER, LIVER, S-9, AROCLOR 1254, Method: STANDARD PLATE): active; positive; mutagenic call (Test System: AMES SALMONELLA TYPHIMURIUM, Strain/Indicator: TA1535, Metabolic Activation: HAMSTER, LIVER, S-9, AROCLOR 1254, Method: STANDARD PLATE): active; positive; mutagenic call (Test System: AMES SALMONELLA TYPHIMURIUM, Strain/Indicator: TA1537, Metabolic Activation: HAMSTER, LIVER, S-9, AROCLOR 1254, Method: STANDARD PLATE): inactive; negative; mutagenic call (Test System: MOUSE LYMPHOMA, Strain/Indicator: L5178Y (TK+/TK-), Metabolic Activation: NONE, Method: SUSPENSION/PLATE): active; positive. reevaluation of results: inconclusive; mutagenic call (Test System: MOUSE LYMPHOMA, Strain/Indicator: L5178Y (TK+/TK-), Metabolic Activation: RAT, LIVER, S-9, AROCLOR 1254, Method: SUSPENSION/PLATE): active; positive. reevaluation of results: positive; mutagenic call (Test System: Mouse lymphoma, Strain/Indicator: L5178Y (tk+/tk-), Metabolic Activation: None, Method: Suspension/plate): active; positive; mutagenic call (Test System: Mouse lymphoma, Strain/Indicator: L5178Y (tk+/tk-), Metabolic Activation: Rat, Liver, S-9, Aroclor 1254, Method: Suspension/plate): active; positive
CCC[CH2][Sn]([Cl])([Cl])[CH2]CCC |  |  |  |  |  |  |  |  | mutagenic call (Test System: AMES SALMONELLA TYPHIMURIUM, Strain/Indicator: TA98, Metabolic Activation: NONE, Method: SUSPENSION/PLATE): inactive; negative; mutagenic call (Test System: AMES SALMONELLA TYPHIMURIUM, Strain/Indicator: TA100, Metabolic Activation: NONE, Method: SUSPENSION/PLATE): inactive; negative
CCOP(=O)(OCC)SCCSCC (tested in a mixture with another compound) |  |  |  |  |  |  |  |  | mutagenic call (Test System: E. COLI, Strain/Indicator: WP2 UVRA, Metabolic Activation: NONE, Method: STANDARD PLATE): active; positive; mutagenic call (Test System: E. COLI, Strain/Indicator: WP2 UVRA, Metabolic Activation: RAT, LIVER, S-9, AROCLOR 1254, Method: STANDARD PLATE): active; positive; mutagenic call (Test System: UDS HUMAN FIBROBLASTS, Strain/Indicator: THY INCORP (NON-S-PHASE), Metabolic Activation: NONE, Method: LIQUID SCINTILLATION COUNTING): active; positive
CC(C)=CC1C(C(=O)OCc2cccc(Oc3ccccc3)c2)C1(C)C (centres undefined) | inactive; negative | inactive; negative | inactive; negative | inactive; negative | inactive; negative | inactive; negative | inactive; negative | inactive; negative | mutagenic call (Test System: AMES SALMONELLA TYPHIMURIUM, Strain/Indicator: TA98): inactive; negative; mutagenic call (Test System: AMES SALMONELLA TYPHIMURIUM, Strain/Indicator: TA98, Metabolic Activation: NONE): inactive; negative; mutagenic call (Test System: AMES SALMONELLA TYPHIMURIUM, Strain/Indicator: TA100): active; positive; mutagenic call (Test System: AMES SALMONELLA TYPHIMURIUM, Strain/Indicator: TA100, Metabolic Activation: NONE): active; positive; mutagenic call (Test System: E. COLI, Strain/Indicator: WP2, Metabolic Activation: NONE, Method: STANDARD PLATE): inactive; negative; mutagenic call (Test System: E. COLI, Strain/Indicator: WP2, Metabolic Activation: RAT, LIVER, S-9, AROCLOR 1254, Method: STANDARD PLATE): inactive; negative
O=C(O)CCC(=O)N(O)c1ccc(Cl)cc1 | inactive; negative | active; positive | inactive; negative | active; positive |  |  |  |  | 
